Assay results published in the NIST ThermoML archive (doi:10.1016/j.fluid.2013.03.002).
Numbers after ± are expanded uncertainties.

Experiments:
[1] = refractive index (Na D-line) (dimensionless); conditions: 101.33 kPa, Liquid, Standard Abbe refractometry
[2] = 101.33 kPa, Liquid, Vibrating tube method

SMILES	refractive index ([1]; 293.15 K)	refractive index ([1]; 298.15 K)	mass density ([2]; 293.15 K) [kg/m3]	mass density ([2]; 298.15 K) [kg/m3]
CCCOCC(C)OCC(C)O (stereo not drawn) [1-(1-methyl-2-propoxyethoxy)-2-propanol]	1.4225 ± 0.0005	1.4214 ± 0.0005	920.14 ± 1	915.65 ± 1
CCCCCCCCCCCCCCCC [hexadecane]	1.4342 ± 0.0006	1.4326 ± 0.0006	773.5 ± 1	769.93 ± 1
